Measurements as given in ChEMBL document CHEMBL4402545, “Subtype Selective γ-Aminobutyric Acid Type A Receptor (GABAAR) Modulators Acting at the Benzodiazepine Binding Site: An Update” (J Med Chem, 2020).
Blank lines part the entries; values can stand above or below the compound they belong to.

Key:
Rattus norvegicus [1] = assay: In vivo receptor occupancy at GABAA receptor in po dosed Sprague-Dawley rat assessed as plasma concentration causing 50% reduction in [3H]-flumazenil receptor labeling after 0.5 hrs; type: functional
[2] = biological target: T1, Gamma-aminobutyric acid receptor subunit alpha-2 (Homo sapiens, UniProt P47869); assay: Binding affinity to GABA-A alpha2 (unknown origin)
T1 sequence (P47869 whole entry): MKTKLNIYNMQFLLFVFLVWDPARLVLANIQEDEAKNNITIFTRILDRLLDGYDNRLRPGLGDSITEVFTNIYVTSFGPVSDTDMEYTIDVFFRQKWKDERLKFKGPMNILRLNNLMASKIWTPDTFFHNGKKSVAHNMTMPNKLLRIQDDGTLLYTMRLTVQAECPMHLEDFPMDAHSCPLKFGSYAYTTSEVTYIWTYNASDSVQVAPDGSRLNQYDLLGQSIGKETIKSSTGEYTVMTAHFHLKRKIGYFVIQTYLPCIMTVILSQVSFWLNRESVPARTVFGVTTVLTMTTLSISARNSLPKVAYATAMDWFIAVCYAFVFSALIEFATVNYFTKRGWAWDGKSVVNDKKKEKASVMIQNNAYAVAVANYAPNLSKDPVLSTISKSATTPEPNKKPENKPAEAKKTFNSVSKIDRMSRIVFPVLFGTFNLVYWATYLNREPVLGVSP

[3] = biological target: T2, Gamma-aminobutyric acid receptor subunit alpha-1 (Homo sapiens, UniProt P14867); assay: Binding affinity to GABA-A alpha1 (unknown origin)
T2 sequence (P14867 whole entry): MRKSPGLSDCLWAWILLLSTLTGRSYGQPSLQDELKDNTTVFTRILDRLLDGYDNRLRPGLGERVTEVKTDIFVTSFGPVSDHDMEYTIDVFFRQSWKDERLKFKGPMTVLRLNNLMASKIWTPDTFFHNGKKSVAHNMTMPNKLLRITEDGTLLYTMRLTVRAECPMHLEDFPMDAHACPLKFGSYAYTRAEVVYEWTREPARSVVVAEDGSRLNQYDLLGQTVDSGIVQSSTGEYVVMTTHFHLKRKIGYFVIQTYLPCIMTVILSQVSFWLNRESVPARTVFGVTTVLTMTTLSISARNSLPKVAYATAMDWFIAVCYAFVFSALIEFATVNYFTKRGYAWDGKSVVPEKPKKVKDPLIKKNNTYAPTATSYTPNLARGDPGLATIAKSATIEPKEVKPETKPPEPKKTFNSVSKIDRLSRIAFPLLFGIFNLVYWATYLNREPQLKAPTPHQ

Rhesus monkey = assay: In vivo receptor occupancy at GABAA receptor in iv dosed rhesus monkey assessed as plasma concentration causing 50% reduction in [11C]-flumazenil receptor labeling by PET method; type: functional, Macaca mulatta
[4] = biological target: T3, Gamma-aminobutyric acid receptor subunit alpha-3 (Homo sapiens, UniProt P34903); assay: Binding affinity to GABA-A alpha3 (unknown origin)
T3 sequence (P34903 whole entry): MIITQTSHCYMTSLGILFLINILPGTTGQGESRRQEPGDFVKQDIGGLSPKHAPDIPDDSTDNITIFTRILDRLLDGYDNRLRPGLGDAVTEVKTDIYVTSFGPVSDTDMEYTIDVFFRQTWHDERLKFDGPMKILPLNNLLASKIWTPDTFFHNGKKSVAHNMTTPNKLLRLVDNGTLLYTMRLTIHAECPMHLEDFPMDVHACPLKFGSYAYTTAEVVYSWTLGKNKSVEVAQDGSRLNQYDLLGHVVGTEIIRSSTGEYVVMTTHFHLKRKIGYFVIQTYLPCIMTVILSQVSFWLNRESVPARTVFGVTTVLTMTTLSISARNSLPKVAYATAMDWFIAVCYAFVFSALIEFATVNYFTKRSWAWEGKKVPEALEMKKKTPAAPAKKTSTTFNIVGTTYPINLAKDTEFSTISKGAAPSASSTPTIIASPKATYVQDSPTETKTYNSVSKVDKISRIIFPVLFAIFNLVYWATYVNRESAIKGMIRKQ

Homo sapiens [5] = assay: In vivo receptor occupancy at GABAA receptor in human at 5 mg, po relative to control; type: functional
Rattus norvegicus [6] = assay: In vivo receptor occupancy at GABAA receptor in po dosed Sprague-Dawley rat assessed as brain concentration causing 50% reduction in [3H]-flumazenil receptor labeling after 0.5 hrs; type: functional
Homo sapiens [7] = assay: In vivo receptor occupancy GABAA receptor in human assessed as cerebellum concentration causing reduction in [11C]flumazenil receptor labeling at 20 mg by PET method relative to control; type: functional
Rattus norvegicus [8] = assay: In vivo receptor occupancy at GABAA receptor in sc dosed rat brain; type: functional
Homo sapiens [9] = assay: In vivo receptor occupancy GABAA receptor in human assessed as occipital cortex concentration causing reduction in [11C]flumazenil receptor labeling at 20 mg by PET method relative to control; type: functional
[10] = biological target: T4, Gamma-aminobutyric acid receptor subunit alpha-2 (Homo sapiens) (UniProt P47869); assay: Binding affinity to GABA-A alpha2 (unknown origin) assessed as increase in induced current relative to control
T4 sequence (whole entry): T1 sequence (P47869 whole entry)

[11] = biological target: T5, Gamma-aminobutyric acid receptor subunit alpha-5 (Homo sapiens) (UniProt P31644); assay: Binding affinity to GABA-A alpha5 (unknown origin) assessed as increase in induced current relative to control
T5 sequence (whole entry): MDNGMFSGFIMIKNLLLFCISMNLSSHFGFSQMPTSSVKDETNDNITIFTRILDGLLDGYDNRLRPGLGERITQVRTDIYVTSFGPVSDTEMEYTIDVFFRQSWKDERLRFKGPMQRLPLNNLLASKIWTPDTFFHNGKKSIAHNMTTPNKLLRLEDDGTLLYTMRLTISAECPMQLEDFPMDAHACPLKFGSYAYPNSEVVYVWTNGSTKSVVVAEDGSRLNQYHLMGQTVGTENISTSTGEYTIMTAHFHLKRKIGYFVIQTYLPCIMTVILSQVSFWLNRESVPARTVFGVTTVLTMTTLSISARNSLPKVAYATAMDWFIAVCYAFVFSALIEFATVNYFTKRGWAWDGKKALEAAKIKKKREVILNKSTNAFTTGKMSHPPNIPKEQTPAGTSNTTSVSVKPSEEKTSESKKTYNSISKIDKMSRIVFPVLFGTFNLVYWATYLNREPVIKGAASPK

[12] = biological target: T6, Gamma-aminobutyric acid receptor subunit alpha-3 (Homo sapiens) (UniProt P34903); assay: Binding affinity to GABA-A alpha3 (unknown origin) assessed as increase in induced current relative to control
T6 sequence (whole entry): T3 sequence (P34903 whole entry)

[13] = biological target: T7, GABA-A receptor; alpha-1/beta-3/gamma-2 (Homo sapiens, UniProt P14867+P18507+P28472); assay: Displacement of [3H]-Ro15-1788 from human GABAA alpha1beta3gamma2 expressed in HEK293 cell membranes incubated for 40 or 90 mins by liquid scintillation counting method
T7 sequence (P14867 whole entry): T2 sequence (P14867 whole entry)
T7 sequence (P18507 whole entry): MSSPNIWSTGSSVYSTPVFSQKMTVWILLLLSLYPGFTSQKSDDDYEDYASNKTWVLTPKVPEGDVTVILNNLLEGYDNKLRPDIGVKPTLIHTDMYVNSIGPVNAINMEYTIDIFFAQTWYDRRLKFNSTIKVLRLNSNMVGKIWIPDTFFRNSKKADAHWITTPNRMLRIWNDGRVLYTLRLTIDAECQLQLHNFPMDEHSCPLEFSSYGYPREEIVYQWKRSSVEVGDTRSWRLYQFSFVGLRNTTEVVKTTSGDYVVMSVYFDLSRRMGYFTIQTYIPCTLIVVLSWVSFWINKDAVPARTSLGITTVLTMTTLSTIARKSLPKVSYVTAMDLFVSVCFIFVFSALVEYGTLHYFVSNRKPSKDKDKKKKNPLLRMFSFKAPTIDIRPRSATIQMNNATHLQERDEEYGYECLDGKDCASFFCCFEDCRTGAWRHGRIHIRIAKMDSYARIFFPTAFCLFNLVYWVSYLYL
T7 sequence (P28472 whole entry): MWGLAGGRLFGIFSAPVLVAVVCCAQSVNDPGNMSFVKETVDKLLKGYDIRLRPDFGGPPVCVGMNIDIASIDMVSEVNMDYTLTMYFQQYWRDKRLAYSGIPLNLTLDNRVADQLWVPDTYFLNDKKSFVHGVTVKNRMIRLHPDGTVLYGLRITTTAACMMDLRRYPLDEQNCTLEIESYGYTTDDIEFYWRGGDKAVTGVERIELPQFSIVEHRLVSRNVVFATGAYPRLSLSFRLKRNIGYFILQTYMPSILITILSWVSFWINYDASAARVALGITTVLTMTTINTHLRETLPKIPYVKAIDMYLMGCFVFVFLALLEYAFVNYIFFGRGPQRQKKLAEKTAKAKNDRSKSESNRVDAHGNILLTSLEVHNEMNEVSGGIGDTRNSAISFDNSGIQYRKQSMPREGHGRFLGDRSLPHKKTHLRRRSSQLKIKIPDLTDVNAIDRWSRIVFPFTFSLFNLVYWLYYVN

[14] = biological target: T8, GABA-A receptor; alpha-3/beta-3/gamma-2 (Homo sapiens, UniProt P18507+P28472+P34903); assay: Displacement of [3H]-Ro15-1788 from human GABAA alpha3beta3gamma2 expressed in HEK293 cell membranes incubated for 40 or 90 mins by liquid scintillation counting method
T8 sequence (P18507 whole entry): T7 sequence (P18507 whole entry)
T8 sequence (P28472 whole entry): T7 sequence (P28472 whole entry)
T8 sequence (P34903 whole entry): T3 sequence (P34903 whole entry)

[15] = biological target: T9, Gamma-aminobutyric acid receptor subunit alpha-1 (Homo sapiens) (UniProt P14867); assay: Binding affinity to GABA-A alpha1 (unknown origin) assessed as increase in induced current relative to control
T9 sequence (whole entry): T2 sequence (P14867 whole entry)

Rattus norvegicus [16] = assay: In vivo receptor occupancy at GABAA receptor in po dosed Wistar rat brain assessed as brain concentration causing reduction in [3H]Flunitrazepam receptor labeling by scintillation counting method; type: functional
[17] = Displacement of [3H]-Ro15-1788 from human GABAA alpha2beta3gamma2 expressed in HEK293 cell membranes incubated for 40 or 90 mins by liquid scintillation counting method
[18] = biological target: T10, GABA-A receptor; alpha-5/beta-3/gamma-2 (Homo sapiens, UniProt P18507+P28472+P31644); assay: Displacement of [3H]-Ro15-1788 from human GABAA alpha5beta3gamma2 expressed in HEK293 cell membranes incubated for 40 or 90 mins by liquid scintillation counting method
T10 sequence (P18507 whole entry): T7 sequence (P18507 whole entry)
T10 sequence (P28472 whole entry): T7 sequence (P28472 whole entry)
T10 sequence (P31644 whole entry): T5 sequence (whole entry)

Ki [2]: 0.85 nM
Ki [3]: 0.83 nM
Ki [4]: 0.77 nM
Structure (SMILES): Cc1cc(-c2nncc3c(C(C)(C)C)c(OCc4ncnn4C)nn23)no1
Occ50 (Rattus norvegicus [1]): 15 ng/mL
Occ50 (Rhesus monkey): 21 ng/mL
Occ (Homo sapiens [5]): 75%
Occ50 (Rattus norvegicus [6]): 0.39 mg/kg

Structure (SMILES): CCCNC(=O)c1nnc2c(-c3c(F)cccc3OC)cccc2c1N [AZD7325]
Occ (Homo sapiens [7]): 83%
Occ50 (Rattus norvegicus [8]): 1 to 2 µM/g
Occ (Homo sapiens [9]): 83%

fold change (FC) [10]: 0.26
fold change (FC) [11]: 0.78
fold change (FC) [12]: 0.52
Ki [13]: 0.41 nM
Ki [14]: 0.5 nM
fold change (FC) [15]: 0.08
Ki [18]: 0.12 nM
Structure (SMILES): CC(C)(O)c1ccc2c(c1)ncn2-c1cccc(-c2ccccc2C#N)c1
Occ50 (Rattus norvegicus [16]): 0.69 mg/kg
Ki [17]: 0.84 nM
